{"source": "patent US20040052837A1", "about": "“Lipid conjugated anti-cancer drugs and methods of use thereof” (priority 2002, published 2004)", "tested_on": "phospholipase A2", "conditions": "SUVs with 18:0,18:2-PC 80/20 mol %, Tris pH 8.8, 20 min"}
{"smiles": "CCCCCCCCCCCCCCCCCC(=O)OCC(COP(=O)([O-])OCC[N+](C)(C)C)OC(=O)CCCc1ccc(N(CCCl)CCCl)cc1", "note": "(stereo not shown) [18:0, Chlorambucil-PC]", "values": [{"measurement": "hydrolysis by phospholipase A2", "value": "total"}]}
